pIC50, pKi: −log10 of the molar value.
Tests used:
[1] = molecular target: T1, GDH1 from bovine liver (glutamate dehydrogenase 1) (Bos taurus, UniProt P00366); assay: spectrophotometric NADH oxidation assay ([…] nm), reference inhibitor measured by the authors; assay type: biochemical
T1 construct: gene GLUD1; purified bovine liver GDH (Sigma Aldrich, Type II)

[2] = molecular target: T1, GDH1 from bovine liver (glutamate dehydrogenase 1); assay: spectrophotometric NADH oxidation assay ([…] nm), Lineweaver-Burk and secondary plots; assay type: biochemical
[3] = molecular target: T2, hGDH1 (human glutamate dehydrogenase 1) (Homo sapiens, UniProt P00367); assay: GDH activity in HepG2 cell extract (NADH, […] nm); assay type: cell-based; conditions: HepG2, read-out: % inhibition at 8 μM %
T2 construct: gene GLUD1; GDH activity in HepG2 cellular extract
T2 sequence (P00367 54-558): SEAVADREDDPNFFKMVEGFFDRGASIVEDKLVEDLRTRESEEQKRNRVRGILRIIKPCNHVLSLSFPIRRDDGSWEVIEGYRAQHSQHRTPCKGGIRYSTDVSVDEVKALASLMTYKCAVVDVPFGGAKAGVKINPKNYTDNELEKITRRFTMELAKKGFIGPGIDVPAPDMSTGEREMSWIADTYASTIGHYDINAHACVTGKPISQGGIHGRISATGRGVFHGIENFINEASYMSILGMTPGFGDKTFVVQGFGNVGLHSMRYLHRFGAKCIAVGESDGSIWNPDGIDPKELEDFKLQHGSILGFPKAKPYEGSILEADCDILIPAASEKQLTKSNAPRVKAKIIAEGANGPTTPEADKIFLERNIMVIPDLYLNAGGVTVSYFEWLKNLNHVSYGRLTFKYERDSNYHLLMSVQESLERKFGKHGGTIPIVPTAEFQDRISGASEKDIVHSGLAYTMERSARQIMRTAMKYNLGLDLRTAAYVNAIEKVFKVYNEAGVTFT

T1 sequence (P00366 58-558): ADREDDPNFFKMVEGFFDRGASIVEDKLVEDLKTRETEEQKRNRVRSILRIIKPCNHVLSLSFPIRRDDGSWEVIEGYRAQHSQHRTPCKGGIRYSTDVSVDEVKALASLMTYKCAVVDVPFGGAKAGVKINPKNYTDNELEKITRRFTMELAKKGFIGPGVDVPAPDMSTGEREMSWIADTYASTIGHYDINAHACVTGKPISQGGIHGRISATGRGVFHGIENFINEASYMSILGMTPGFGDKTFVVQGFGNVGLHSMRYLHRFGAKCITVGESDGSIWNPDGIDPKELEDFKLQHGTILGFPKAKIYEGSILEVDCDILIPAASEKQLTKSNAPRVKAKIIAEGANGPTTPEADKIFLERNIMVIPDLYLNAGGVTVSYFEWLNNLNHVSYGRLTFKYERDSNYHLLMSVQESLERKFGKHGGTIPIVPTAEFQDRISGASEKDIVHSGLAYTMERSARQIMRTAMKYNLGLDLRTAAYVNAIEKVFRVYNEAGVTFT

| Compound | pIC50 [1] | pKi [2] | inhibition at 8 µM [3] [%] |
| --- | --- | --- | --- |
| O=C(O[C@@H]1Cc2c(O)cc(O)cc2O[C@@H]1c1cc(O)c(O)c(O)c1)c1cc(O)c(O)c(O)c1 [EGCG, Epigallocatechin gallate] | ~5.70 | – | – |
| O=c1c(O)c(-c2ccc(O)c(O)c2)oc2cc(O)cc(O)c12 [quercetin] | – | 5.04 | ~56 |
| Permethylated Anigopreissin A [PAA] | – | 5.00 | – |

Reference: publication PMC8615521, “Mitochondria-Mediated Apoptosis of HCC Cells Triggered by Knockdown of Glutamate Dehydrogenase 1: Perspective for Its Inhibition through Quercetin and Permethylated Anigopreissin A” (Biomedicines, 2021)
